Assay results as given in US12171766B2, “Methods of treating patients suffering from brain injury and methods of increasing the value of the extended Glasgow Outcome Scale of patients suffering from brain injury” (VERINOS OPERATIONS GMBH, priority 2021, dated 2024).

Tested on: adult intensive care patients with acute moderate and severe TBI
Assay: NOSTRA phase III trial: Extended Glasgow Outcome Scale (eGOS) at 3 and 6 months, Ronopterin 17 mg/kg infused over 48 hours vs placebo, incl. post hoc subgroup analyses
Type: in vivo, human
Conditions: for Good Recovery (eGOS ≥ 7) at 6 months, Odds ratio, 95% CI / Improvement in eGOS from 3 to 6 months, at least + 1 eGOS level, Odds ratio, 95% CI / Good Recovery (eGOS ≥ 7) at 3 months, Odds ratio, 95% CI: vs placebo
Protocol: A phase III trial of Ronopterin infusion to adult TBI patients (18-60 years) with acute moderate and severe TBI was performed. Based on the results of the earlier phase II study, the NOSTRA (NO Synthase in TRAumatic Brain Injury) phase III trial was designed to detect clinically relevant differences in clinical outcome (Extended Glasgow Outcome Score at 6 months after injury) as primary endpoint.
NOSTRA III was a multicentre, prospective, two parallel groups, blinded, placebo-controlled, randomised phase III trial of Ronopterin infusion for 48 hours in adult intensive care patients with acute moderate and severe TBI. […] The detailed study protocol is described by Tegtmeier et al. Efficacy of Ronopterin (VAS203) in Patients with Moderate and Severe Traumatic Brain Injury (NOSTRA phase III trial): study protocol of a confirmatory, placebo-controlled, randomised, double blind, multi-centre study. Trials. 2020. A total of 224 evaluable patients with moderate and severe TBI were enrolled in 32 centres in Austria, France, Germany, Spain, and United Kingdom. The trial started on 24 Aug. 2016 with last-patient last-visit on 17 Jun. 2020.
Patients between 18 and 60 years of age with Glasgow Coma Score≥3 requiring intracranial pressure (ICP) monitoring were enrolled. Other inclusion criteria were TBI within the last 18 hours but at least 6 hours after the injury, which were expected to survive more than 24 hours after admission.
Ronopterin and placebo (0.9% saline) were infused continuously via central venous catheter at a constant rate. A total dose of 17 mg/kg body weight of Ronopterin was infused for 48 hours (daily dose 8.5 mg/kg body weight).
The primary outcome was the difference between eGOS in Ronopterin and placebo treated patients at 6 months after trauma. The eGOS was determined by a face to face meeting by trained assessors.
The null-hypothesis of no shift across the 8 ordered categories of eGOS for the two treatment groups was tested after six months based on a proportional odds model stratified by age (18-39 years and 40-60 years). The treatment effect was estimated using ordinal Logistic regression model as the (proportional) odds ratio of Ronopterin versus Placebo. Treatment and age (18-39 years and 40-60 years) were included in the model. The proportional odds assumption was tested using a Chi-Square Score Test.
As secondary efficacy endpoint the eGOS at 3 months was analysed using the same statistics.
The main objective of the post hoc analyses was to estimate the effect size of VAS203 compared with placebo for the primary endpoint eGOS-I in the subgroups time to infusion ≤12 hours and >12 hours. Supportive analyses were conducted by age group (<40 years, ≥40 years) because age group was used as a stratification factor in the study. Comparability between treatment groups regarding demographics as well as severity and location of disease was investigated using similar methods as in the main CSR.
The proportions of patients per eGOS-I level at 3 months and at 6 months were calculated. For the change in eGOS-I over time, the proportion of patients with changes from 3 to 6 months were calculated by eGOS-I level, and in addition categorised as decreased (i.e. any decrease in eGOS-I level from 3 to 6 months), unchanged (i.e. no change in eGOS-I level from 3 to 6 months), and increased (i.e. any increase in eGOS-I level from 3 to 6 months).
Ordinal logistic regression was used for the analysis of eGOS-I at 3 months and at 6 months, including treatment group and age group (<40 years, ≥40 years) as factors in the model. Estimated odds ratios for the comparison of the VAS203 and placebo groups of >1 mean that eGOS-I was higher in the VAS203 group than in the placebo group across the 8 levels, whereas odds ratios of <1 mean that eGOS-I was lower in the VAS203 group than in the placebo group. Odds ratios together with their 95% CIs were used to estimate and assess the size of the treatment effect of VAS203 compared to placebo. […]

CC(O)C(O)C1CNc2nc(N)nc(N)c2N1 [Ronopterin, 4-Amino-(6R,S)-5,6,7,8-tetrahydro-L-biopterin]
Good Recovery (eGOS ≥ 7) at 6 months, Odds ratio, 95% CI (All females 40-60 years (so in the source), >12 hours): 5.5 (0.6-53);
Good Recovery (eGOS ≥ 7) at 6 months, Odds ratio, 95% CI (All females, all times to infusion): 2.8 (0.6-12.6); n = 44
Improvement in eGOS from 3 to 6 months, at least + 1 eGOS level, Odds ratio, 95% CI (All males 18-60 years and young females 18-39 years, ≤12 hours): 3.4 (1.2-10.2);
Improvement in eGOS from 3 to 6 months, at least + 1 eGOS level, Odds ratio, 95% CI (All males 18-60 years, ≤12 hours): 3.7 (1.1-12);
Good Recovery (eGOS ≥ 7) at 6 months, Odds ratio, 95% CI (All males plus females 18-39 years, ≤12 hours): 2.4 (0.8-7.6);
Good Recovery (eGOS ≥ 7) at 3 months, Odds ratio, 95% CI (Female, 18-39 years, >12 hours): 6.5 (0.27-161);
Good Recovery (eGOS ≥ 7) at 6 months, Odds ratio, 95% CI (Female, 18-39 years, >12 hours): 2.3 (0.2-33);
Improvement in eGOS from 3 to 6 months, at least + 1 eGOS level, Odds ratio, 95% CI (Female, 18-39 years, >12 hours): 0.3 (0.04-2.8);
Good Recovery (eGOS ≥ 7) at 3 months, Odds ratio, 95% CI (Female, 18-39 years, ≤12 hours): 1.5 (0.06-41);
Good Recovery (eGOS ≥ 7) at 6 months, Odds ratio, 95% CI (Female, 18-39 years, ≤12 hours): 6.0 (0.2-163);
Improvement in eGOS from 3 to 6 months, at least + 1 eGOS level, Odds ratio, 95% CI (Female, 18-39 years, ≤12 hours): 1.5 (0.06-41);
Good Recovery (eGOS ≥ 7) at 3 months, Odds ratio, 95% CI (Female, 40-60 years, >12 hours): 4.2 (0.2-102);
Good Recovery (eGOS ≥ 7) at 6 months, Odds ratio, 95% CI (Female, 40-60 years, >12 hours): 6.2 (0.3-147);
Improvement in eGOS from 3 to 6 months, at least + 1 eGOS level, Odds ratio, 95% CI (Female, 40-60 years, >12 hours): 1.3 (0.1-18);
Good Recovery (eGOS ≥ 7) at 3 months, Odds ratio, 95% CI (Female, 40-60 years, ≤12 hours): 1.3 (0.02-83);
Good Recovery (eGOS ≥ 7) at 6 months, Odds ratio, 95% CI (Female, 40-60 years, ≤12 hours): 0.3 (0.01-11.3);
Improvement in eGOS from 3 to 6 months, at least + 1 eGOS level, Odds ratio, 95% CI (Female, 40-60 years, ≤12 hours): 0.3 (0.01-11.3);
Good Recovery (eGOS ≥ 7) at 3 months, Odds ratio, 95% CI (Females 18-39 years, all times to infusion): 4.2 (0.4-47); n = 23
Good Recovery (eGOS ≥ 7) at 3 months, Odds ratio, 95% CI (Females 40-60 years, all times to infusion): 5.7 (0.3-126); n = 21
Good Recovery (eGOS ≥ 7) at 3 months, Odds ratio, 95% CI (Male, 18-39 years, >12 hours): 0.2 (0.03-0.85);
Improvement in eGOS from 3 to 6 months, at least + 1 eGOS level, Odds ratio, 95% CI (Male, 18-39 years, >12 hours): 0.7 (0.2-1.9);
Good Recovery (eGOS ≥ 7) at 6 months, Odds ratio, 95% CI (Male, 18-39 years, time to infusion >12 hours): 0.6 (0.2-1.6);
Good Recovery (eGOS ≥ 7) at 6 months, Odds ratio, 95% CI (Male, 18-39 years, time to infusion ≤12 hours): 1.4 (0.3-5.9);
Good Recovery (eGOS ≥ 7) at 3 months, Odds ratio, 95% CI (Male, 18-39 years, ≤12 hours): 0.4 (0.08-2.2);
Improvement in eGOS from 3 to 6 months, at least + 1 eGOS level, Odds ratio, 95% CI (Male, 18-39 years, ≤12 hours): 5.4 (1.1-26);
Good Recovery (eGOS ≥ 7) at 3 months, Odds ratio, 95% CI (Male, 40-60 years, >12 hours): 0.2 (0.02-1.4);
Good Recovery (eGOS ≥ 7) at 6 months, Odds ratio, 95% CI (Male, 40-60 years, >12 hours): 0.6 (0.2-2.2);
Improvement in eGOS from 3 to 6 months, at least + 1 eGOS level, Odds ratio, 95% CI (Male, 40-60 years, >12 hours): 0.98 (0.3-2.8);
Good Recovery (eGOS ≥ 7) at 3 months, Odds ratio, 95% CI (Male, 40-60 years, ≤12 hours): 0.7 (0.01-38);
Good Recovery (eGOS ≥ 7) at 6 months, Odds ratio, 95% CI (Male, 40-60 years, ≤12 hours): 9.0 (0.4-194);
Improvement in eGOS from 3 to 6 months, at least + 1 eGOS level, Odds ratio, 95% CI (Male, 40-60 years, ≤12 hours): 2.3 (0.4-14.6);
increase in eGOS levels from 3 to 6 months (age 18-39 years, >12 hours (FIG. 7E)): up to 3 levels
number of patients with increase in eGOS by at least 2 levels from 3 to 6 months (age 18-39 years, >12 hours (FIG. 7G)): 10
less patients with decrease in eGOS over time vs placebo: significance (age 18-39 years, all times to infusion): not significant
increase in eGOS levels from 3 to 6 months (age 18-39 years, all times to infusion (FIG. 6A)): up to 3 levels
number of patients with increase in eGOS by at least 2 levels from 3 to 6 months (age 18-39 years, all times to infusion (FIG. 6C)): 14
more patients with higher increase in eGOS over time vs placebo: significance (age 18-39 years, all times to infusion (FIG. 6D)): not significant
increase in eGOS levels from 3 to 6 months (age 18-39 years, ≤12 hours (FIG. 7A)): up to 3 levels
increase in proportion of patients with an eGOS increase by at least 1 level compared to Placebo: significance (age 18-39 years, ≤12 hours (FIG. 7B, 7D)): significant
number of patients with increase in eGOS by at least 2 levels from 3 to 6 months (age 18-39 years, ≤12 hours (FIG. 7C)): 4
increase in eGOS levels from 3 to 6 months (age 40-60 years, >12 hours (FIG. 9E)): up to 4 levels
number of patients with increase in eGOS by at least 2 levels from 3 to 6 months (age 40-60 years, >12 hours (FIG. 9G)): 5
less patients with a decrease in eGOS over time vs placebo: significance (age 40-60 years, all times to infusion): not (statistically) significant
increase in eGOS levels from 3 to 6 months (age 40-60 years, all times to infusion (FIG. 8A)): up to 4 levels
